Strand notation (5' to 3'): a small letter for the sugar, then the base; units joined by * are phosphorothioate-linked, units joined directly phosphodiester-linked; [ ] holds rarer units or linkages, { } end groups; capitals alone tell only the bases. d = 2'-deoxy (DNA)
Biological target: T1, human type II phospholipase A2 (Homo sapiens, UniProt P14555)
T1 sequence (P14555 21-144): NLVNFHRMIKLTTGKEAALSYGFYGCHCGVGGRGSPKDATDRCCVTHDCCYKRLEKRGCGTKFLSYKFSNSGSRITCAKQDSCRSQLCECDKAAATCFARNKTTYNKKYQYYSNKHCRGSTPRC
Experiment: Human type II phospholipase A2 enzyme assay (3H-oleic acid labelled E. coli substrate)
Format: biochemical
Conditions: not given

Substance	I.C.50 relative to ISIS 3196 (fold higher)
ISIS 3631: AGGTCGAGGAGTGGTCTGAGC, phosphorothioate, SEQ ID NO 81 (dA*dG*dG*dT*dC*dG*dA*dG*dG*dA*dG*dT*dG*dG*dT*dC*dT*dG*dA*dG*dC)	approximately 10 fold
ISIS 3628: GGAGCCCTfCTATACCCACCC, phosphorothioate, SEQ ID NO 78	approximately 10 fold

Same assay, conditions: 1 μM

Substance	inhibition of human type II phospholipase A2
ISIS 3470: GTAGGGAGGGAGGGTATGAGA, phosphorothioate, SEQ ID NO 66 (dG*dT*dA*dG*dG*dG*dA*dG*dG*dG*dA*dG*dG*dG*dT*dA*dT*dG*dA*dG*dA)	completely inhibited

Same assay, conditions: 1 μM; Table 4

Substance	% Inhibition (1 μM) [%]
ISIS 3477: GTGGAGGAGAGCAGTAGAAGG, phosphorothioate, SEQ ID NO 73 (dG*dT*dG*dG*dA*dG*dG*dA*dG*dA*dG*dC*dA*dG*dT*dA*dG*dA*dA*dG*dG)	54.7
ISIS 3473: CTGCCTGGCCTCTAGGATGGG, phosphorothioate, SEQ ID NO 69 (dC*dT*dG*dC*dC*dT*dG*dG*dC*dC*dT*dC*dT*dA*dG*dG*dA*dT*dG*dG*dG)	25.9
ISIS 3472: TGGGTGAGGGATGCTTTCTGC, phosphorothioate, SEQ ID NO 68 (dT*dG*dG*dG*dT*dG*dA*dG*dG*dG*dA*dT*dG*dC*dT*dT*dT*dC*dT*dG*dC)	69.0
ISIS 3697: ACTCTTACCACAGGTGATTCT, phosphorothioate, SEQ ID NO 93 (dA*dC*dT*dC*dT*dT*dA*dC*dC*dA*dC*dA*dG*dG*dT*dG*dA*dT*dT*dC*dT)	39
ISIS 3192: GGAAGGTTTCGAGQGAAGAGG, phosphorothioate, SEQ ID NO 63	28.1
ISIS 3676: AGCTCTTACCAAAGATCATGA, phosphorothioate, SEQ ID NO 89 (dA*dG*dC*dT*dC*dT*dT*dA*dC*dC*dA*dA*dA*dG*dA*dT*dC*dA*dT*dG*dA)	24.5
ISIS 3679: AGTAGGCCTGGAAGGAAATTT, phosphorothioate, SEQ ID NO 90 (dA*dG*dT*dA*dG*dG*dC*dC*dT*dG*dG*dA*dA*dG*dG*dA*dA*dA*dT*dT*dT)	30.3
ISIS 3478: TGGTTAAGCACGGAGTTGAGG, phosphorothioate, SEQ ID NO 74 (dT*dG*dG*dT*dT*dA*dA*dG*dC*dA*dC*dG*dG*dA*dG*dT*dT*dG*dA*dG*dG)	26.4
ISIS 3631: AGGTCGAGGAGTGGTCTGAGC, phosphorothioate, SEQ ID NO 81 (dA*dG*dG*dT*dC*dG*dA*dG*dG*dA*dG*dT*dG*dG*dT*dC*dT*dG*dA*dG*dC)	20.7
ISIS 3663: GTCTGCTGGGTGGTCTGAACT, phosphorothioate, SEQ ID NO 85	16.3
ISIS 3476: GCTGGAAATCTGCTGGATGTC, phosphorothioate, SEQ ID NO 72 (dG*dC*dT*dG*dG*dA*dA*dA*dT*dC*dT*dG*dC*dT*dG*dG*dA*dT*dG*dT*dC)	43.4
ISIS 3628: GGAGCCCTfCTATACCCACCC, phosphorothioate, SEQ ID NO 78	13.6
ISIS 3659: TGCTCCTCCTTGGTGGCTCTC, phosphorothioate, SEQ ID NO 84 (dT*dG*dC*dT*dC*dC*dT*dC*dC*dT*dT*dG*dG*dT*dG*dG*dC*dT*dC*dT*dC)	38.2
ISIS 3665: GGACTGGCCTAGCTCCTCTGC, phosphorothioate, SEQ ID NO 86 (dG*dG*dA*dC*dT*dG*dG*dC*dC*dT*dA*dG*dC*dT*dC*dC*dT*dC*dT*dG*dC)	45.8
ISIS 3669: GGTGACAAATGCAGATGGACT, phosphorothioate, SEQ ID NO 87 (dG*dG*dT*dG*dA*dC*dA*dA*dA*dT*dG*dC*dA*dG*dA*dT*dG*dG*dA*dC*dT)	34.7
ISIS 3468: GGGACTCAGCAACGAGGGGTG, phosphorothioate, SEQ ID NO 65 (dG*dG*dG*dA*dC*dT*dC*dA*dG*dC*dA*dA*dC*dG*dA*dG*dG*dG*dG*dT*dG)	97.5

Substance	% Inhibition (1 μM) [%]
ISIS 3671: TAGGAGGGTCTTCATGGTAAG, phosphorothioate, SEQ ID NO 88 (dT*dA*dG*dG*dA*dG*dG*dG*dT*dC*dT*dT*dC*dA*dT*dG*dG*dT*dA*dA*dG)	49.3
ISIS 3182: CAGAGGACTCCAGAGTTGTAT, phosphorothioate, SEQ ID NO 59 (dC*dA*dG*dA*dG*dG*dA*dC*dT*dC*dC*dA*dG*dA*dG*dT*dT*dG*dT*dA*dT)	30.2
ISIS 3479: CCGGAGTACAGGTTCTTTGGT, phosphorothioate, SEQ ID NO 75	42.3
ISIS 3470: GTAGGGAGGGAGGGTATGAGA, phosphorothioate, SEQ ID NO 66 (dG*dT*dA*dG*dG*dG*dA*dG*dG*dG*dA*dG*dG*dG*dT*dA*dT*dG*dA*dG*dA)	88.9
ISIS 3630: TCTCATACCCTCCCTCCCTAC, phosphorothioate, SEQ ID NO 80 (dT*dC*dT*dC*dA*dT*dA*dC*dC*dC*dT*dC*dC*dC*dT*dC*dC*dC*dT*dA*dC)	17.6
ISIS 3474: ATAGAAGGGCTCCTGCCTGGC, phosphorothioate, SEQ ID NO 70 (dA*dT*dA*dG*dA*dA*dG*dG*dG*dC*dT*dC*dC*dT*dG*dC*dC*dT*dG*dG*dC)	13.3
ISIS 3184: TTCATGGTAAGAGTTCTTGGG, phosphorothioate, SEQ ID NO 60 (dT*dT*dC*dA*dT*dG*dG*dT*dA*dA*dG*dA*dG*dT*dT*dC*dT*dT*dG*dG*dG)	25.1
ISIS 3481: TTTTTGATTTGCTAATTGCTT, phosphorothioate, SEQ ID NO 77 (dT*dT*dT*dT*dT*dG*dA*dT*dT*dT*dG*dC*dT*dA*dA*dT*dT*dG*dC*dT*dT)	2.2
ISIS 3712: AGGAGTCCTGTTTTGAAATCA, phosphorothioate, SEQ ID NO 94 (dA*dG*dG*dA*dG*dT*dC*dC*dT*dG*dT*dT*dT*dT*dG*dA*dA*dA*dT*dC*dA)	31.8
ISIS 3688: TGGCCTCACCGATCCGTTGCA, phosphorothioate, SEQ ID NO 91 (dT*dG*dG*dC*dC*dT*dC*dA*dC*dC*dG*dA*dT*dC*dC*dG*dT*dT*dG*dC*dA)	43.1
ISIS 4133: AGTGCACGTTGAGTATGTGAG, phosphorothioate, SEQ ID NO 95 (dA*dG*dT*dG*dC*dA*dC*dG*dT*dT*dG*dA*dG*dT*dA*dT*dG*dT*dG*dA*dG)	37.3
ISIS 3193: CCTGCAGTAGGCCTGGAAGGA, phosphorothioate, SEQ ID NO 64 (dC*dC*dT*dG*dC*dA*dG*dT*dA*dG*dG*dC*dC*dT*dG*dG*dA*dA*dG*dG*dA)	22.6
ISIS 3185: CAAAGATCATGATCACTGCCA, phosphorothioate, SEQ ID NO 61 (dC*dA*dA*dA*dG*dA*dT*dC*dA*dT*dG*dA*dT*dC*dA*dC*dT*dG*dC*dC*dA)	22.7
ISIS 3181: TCTGCCCCGGCCGTCGCTCCC, phosphorothioate, SEQ ID NO 58 (dT*dC*dT*dG*dC*dC*dC*dC*dG*dG*dC*dC*dG*dT*dC*dG*dC*dT*dC*dC*dC)	42.7
ISIS 3633: GTAGGGATGGGAGTGAAGGAG, phosphorothioate, SEQ ID NO 83 (dG*dT*dA*dG*dG*dG*dA*dT*dG*dG*dG*dA*dG*dT*dG*dA*dA*dG*dG*dA*dG)	58.5
ISIS 3475: TCTCATTCTGGGTGGGTATAG, phosphorothioate, SEQ ID NO 71 (dT*dC*dT*dC*dA*dT*dT*dC*dT*dG*dG*dG*dT*dG*dG*dG*dT*dA*dT*dA*dG)	67.0

Same assay, conditions: 1 μM; Table 5, two separate experiments

Substance	% Inhibition (1 μM) [%]
ISIS 4956: GGG CGG GTA TAG, SEQ ID NO 105 (dG*dG*dG*dC*dG*dG*dG*dT*dA*dT*dA*dG; aptamer)	92.0
ISIS 4957: GGG TGG ATA TAG, SEQ ID NO 106 (dG*dG*dG*dT*dG*dG*dA*dT*dA*dT*dA*dG; aptamer)	81.9
ISIS 4947: AGG TGG GTA TAG, SEQ ID NO 103 (dA*dG*dG*dT*dG*dG*dG*dT*dA*dT*dA*dG; aptamer)	22.7
ISIS 4955: GGG AGG GTA TAG, SEQ ID NO 104 (dG*dG*dG*dA*dG*dG*dG*dT*dA*dT*dA*dG; aptamer)	97.5
GGG TGG GTA TAG AAG: truncated version of ISIS 3196, SEQ ID NO 98 (dG*dG*dG*dT*dG*dG*dG*dT*dA*dT*dA*dG*dA*dA*dG)	82.5
TGG GTA TAG AAG GGC: truncated version of ISIS 3196, SEQ ID NO 102 (dT*dG*dG*dG*dT*dA*dT*dA*dG*dA*dA*dG*dG*dG*dC)	33.5
ISIS 4946: GGG TGG GAA TAG, SEQ ID NO 107 (dG*dG*dG*dT*dG*dG*dG*dA*dA*dT*dA*dG; aptamer)	73.2
GTA TAG AAG GGC TCC: truncated version of ISIS 3196, SEQ ID NO 100 (dG*dT*dA*dT*dA*dG*dA*dA*dG*dG*dG*dC*dT*dC*dC)	9.2
TAG AAG GGC TCC: truncated version of ISIS 3196, SEQ ID NO 101 (dT*dA*dG*dA*dA*dG*dG*dG*dC*dT*dC*dC)	0
GGG TGG GTA TAG AAG GGC: truncated version of ISIS 3196, SEQ ID NO 97 (dG*dG*dG*dT*dG*dG*dG*dT*dA*dT*dA*dG*dA*dA*dG*dG*dG*dC)	85.3

Same assay, conditions: concentrations as high as 10 μM

Substance	inhibition of phospholipase A2
ISIS 1573: phosphorothioate deoxyoligonucleotide, SEQ ID NO: 120 (dG*dA*dG*dG*dC*dT*dG*dA*dG*dG*dT*dG*dG*dG*dA*dG*dG*dA)	did not significantly inhibit

Same assay, conditions: increasing E. coli substrate; ISIS 3481 at 0.2 μM and 2 μM

Substance	effect on substrate kinetics
ISIS 3481: TTTTTGATTTGCTAATTGCTT, phosphorothioate, SEQ ID NO 77 (dT*dT*dT*dT*dT*dG*dA*dT*dT*dT*dG*dC*dT*dA*dA*dT*dT*dG*dC*dT*dT)	did not modify the substrate kinetics
